Measured values: patent US7687640B2, “Cinnamide compound” (Eisai R&D Management Co., Ltd., priority 2004, dated 2010)
Counter-ions that a name gives are not always drawn.

These compounds were tested on Aβ42 production (assay: Quantification of Aβ peptide (Aβx-42 ELISA) in neuronal culture from rat fetus brain). Conditions: primary neuronal culture from cerebral cortices of embryonic day 18 Wistar rat; compound added on day 4 of culture, incubation for 3 days; Aβx-42 in medium by ELISA, % of CTRL; read-out: Effect to Reduce Aβ42 Production IC50.
Assay type: cell-based
Description: Quantification of Aβ Peptide in Neuronal Culture from Rat Fetus Brain (1)
Primary neuronal cultures were prepared from cerebral cortices from embryonic day 18 Wistar rat (Charles River Japan, Yokohama, Japan). The embryos were aseptically removed from a pregnant rat under ether anesthesia. The brain was isolated from the embryo, and immersed in ice-cold L-15 medium (for example, Invitrogen Corp. Cat #11415-064, Carlsbad, Calif., USA, or SIGMA L1518, St. Louis. MO, USA). The cerebral cortex was collected under a stereoscopic microscope from the brain. The cerebral cortex fragments collected were subjected to enzyme treatment in an enzyme solution containing 0.25% trypsin (for example, Invitrogen Corp., Cat #15050-065, Carlsbad, Calif., USA) and 0.01% DNase (for example, Sigma D5025, St. Louis. MO, USA) at 37 C for 30 minutes to allow for cell dispersion. The enzyme reaction was terminated by addition of same volume of heat-inactivated horse serum. After centrifugation at 1500 rpm for 5 minutes, the supernatant was removed and 5-10 ml of medium was added to the cell pellet. Neurobasal Medium™ (Invitrogen Corp., Carlsbad, Calif., USA) supplemented with 2% B-27 supplement (Invitrogen Corp., Carlsbad, Calif., USA), 25 μM 2-mercaptoethanol (2-ME, WAKO, 139-06861, Osaka, Japan), 0.5 mM L-glutamine (for example, Invitrogen Corp., Cat # 25030-081, Carlsbad, Calif., USA), and 1% antibiotics-antimycotics (Invitrogen Corp., Cat # 15240-062, Carlsbad, Calif., USA) was used as the culture medium (Neurobasal/B27/2-ME). At the compound evaluation, the medium of the same composition not to add 2-ME alone (Neurobasal/B27) was used. The cell pellet was triturated by mild pipetting. Remaining cell pellet was removed by filtering through a 40-μm nylon mesh (Cell Strainer, Cat # 35-2340, Becton Dickinson Labware, Franklin Lakes, N.J., USA) and a neuronal cell suspension was obtained. The neuronal cell suspension was diluted with the Neurobasal/B27/2-ME medium and then plated in a volume of 100 μl/well to obtain an initial cell density of 5×10^5 cells/cm^2 in a 96-well polystyrene plate pre-coated with poly-L or D-lysine (for example, Falcon MICROTEST Tissue culture plate 96 well flat bottom with low evaporation lid (Cat # 35-3075, Becton Dickinson Labware, Franklin Lakes, N.J., USA) coated with poly-L-lysine using the method shown below, or BIOCOAT™ cell environments Poly-D-lysine cell ware 96-well plate, Cat # 35-6461, Becton Dickinson Labware, Franklin Lakes, N.J., USA). Poly-L-lysine coating was carried out as follows. Poly-L-lysine (SIGMA P2636, St. Louis, Mo., USA) solution at 100 μg/ml was prepared aseptically with 0.15 M Borate buffer (pH 8.5). The solution was added to a 96-well polystyrene […] at 50-100 μl/well and incubated at room temperature for one hour or more, or at 4 C overnight or longer. This was rinsed 4 or more times with sterile water, and then dried or rinsed with, for example, sterile PBS or medium, and used for plating cells. Cells were cultured for one day in an incubator of 5% CO2-95% air at 37 C, the entire amount of the medium was exchanged with fresh Neurobasal/B27/2-ME, and the cells were then cultured for further 3 days.
Drugs were added on day 4 of culture as follows. The entire amount of the medium was removed from culture well, and Neurobasal/B27 medium was added at 180 μl/well. The test compound dimethyl sulfoxide (hereinafter abbreviated as DMSO) solution was diluted with Neurobasal/B27 so than it would be 10-fold of the desired final concentration. A diluent was added at 20 μl/well and mixed well. The final concentration of DMSO was 1% or less. Only DMSO was added to the control group.
After incubation for 3 days, the entire amount of the medium was collected as ELISA sample. This was used without any dilution for Aβx-42 measurement, and diluted to 5-fold with the diluent supplied with ELISA kit for Aβx-40 measurement, before subjecting to respective ELISA assays. […]
With `COc1cc(/C=C2\CCCN([C@@H](C)c3ccc(F)cc3)C2=O)ccc1-n1cnc(C)c1` [Example 425, (E)-1-[(1S)-1-(4-fluorophenyl)ethyl]-3-[3-methoxy-4-(4-methyl-1H-imidazol-1-yl)benzylidene]piperidin-2-one] the IC50 was 80 nM.
For `COc1cc(/C=C2\CCCN(C3Cc4ccccc4C3)C2=O)ccc1-n1cnc(C)c1` [Example 418, (E)-1-indan-2-yl-3-[3-methoxy-4-(4-methyl-1H-imidazol-1-yl)benzylidene]piperidin-2-one], the IC50 was 109 nM.
Work on `COc1cc(/C=C2\CCCN([C@H]3CCOc4ccccc43)C2=O)ccc1-n1cnc(C)c1` (mixture of isomers) [Example 420, (E)-1-[(4R) and (4S)-chroman-4-yl]-3-[3-methoxy-4-(4-methyl-1H-imidazol-1-yl)benzylidene]piperidin-2-one] yielded an IC50 of 120 nM.
`COc1cc(/C=C2\CCCN(Cc3cc(Cl)nc(Cl)c3)C2=O)ccc1-n1cnc(C)c1` [Example 403, (E)-1-(2,6-dichloropyridine-4-ylmethyl)-3-[3-methoxy-4-(4-methyl-1H-imidazol-1-yl)benzylidene]piperidin-2-one] showed an IC50 of 90 nM.
For `COc1cc(/C=C2\CCCN(C(C)c3c[nH]c4ccccc34)C2=O)ccc1-n1cnc(C)c1` [Example 965, (E)-1-[(1R) and (1S)-(1H-indol-3-yl)ethyl]-3-[3-methoxy-4-(4-methyl-1H-imidazol-1-yl)benzylidene]piperidin-2-one], the IC50 was 87 nM.
In the case of `COc1cc(/C=C/C(=O)NCc2cccc(-c3ccccc3)c2)ccc1-n1cnc(C)c1` [Example 121, (E)-N-biphenyl-3-ylmethyl-3-(3-methoxy-4-(4-methyl-1H-imidazol-1-yl)phenyl)acrylic acid amide], the IC50 is reported as 70 nM.
Compound `COc1cc(/C=C/C(=O)N[C@H]2CCOc3ccccc32)ccc1-n1cnc(C)c1` (mixture of isomers) [Example 414, (E)-N-[(4R) and (4S)-chroman-4-yl]-3-[3-methoxy-4-(4-methyl-1H-imidazol-1-yl)phenyl]acrylamide] has an IC50 of 130 nM.
`COc1cc(/C=C2\CCCN(Cc3ccc(F)c(F)c3)C2=O)ccc1-n1cnc(C)c1` [Example 416, (E)-1-(3,4-difluorobenzyl)-3-[3-methoxy-4-(4-methyl-1H-imidazol-1-yl)benzylidene]piperidin-2-one] gave an IC50 of 100 nM.
`COc1cc(/C=C2\CCCN(C3(c4ccc(F)cc4)CCOCC3)C2=O)ccc1-n1cnc(C)c1` [Example 639, (E)-1-[4-(4-fluorophenyl)tetrahydropyran-4-yl)-3-(3-methoxy-4-(4-methyl-1H-imidazol-1-yl)benzylidene]piperidin-2-one] gave an IC50 of 56 nM.
`COc1cc(/C=C/C(=O)N2CCC(c3cc4ccccc4[nH]3)CC2)ccc1-n1cnc(C)c1` [Example 338, (E)-1-{4-(1H-indol-2-yl)piperidin-1-yl}-3-[3-methoxy-4-(4-methyl-1H-imidazol-1-yl)phenyl]propenone] was tested, and the IC50 was 330 nM.
In the case of `COc1cc(/C=C2\CCCN(Cc3ccc(C(C)(C)C)cc3)C2=O)ccc1-n1cnc(C)c1` [Example 430, (E)-1-(4-tert-butylbenzyl)-3-[3-methoxy-4-(4-methyl-1H-imidazol-1-yl)benzylidene]piperidin-2-one], the IC50 is reported as 119 nM.
`COc1cc(/C=C/C(=O)N2CCC(c3cc4ccccc4n3CCO)CC2)ccc1-n1cnc(C)c1` [Example 366, (E)-1-{4-[1-(2-hydroxyethyl)-1H-indol-2-yl]piperidin-1-yl}-3-[3-methoxy-4-(4-methyl-1H-imidazol-1-yl)phenyl]propenone] showed an IC50 of 330 nM.
With `COc1cc(/C=C/C(=O)N2CCCC(c3ccc(F)cc3)CC2)ccc1-n1cnc(C)c1` (stereo not shown) [Example 353, (E)-1-[4-(4-fluorophenyl)azepan-1-yl]-3-[3-methoxy-4-(4-methyl-1H-imidazol-1-yl)phenyl]propenone] the IC50 was 220 nM.
`COc1cc(/C=C2\CCCN(Cc3ccc(F)c(F)c3)C2=O)cnc1-n1cnc(C)c1` [Example 611, (E)-1-(3,4-difluorobenzyl)-3-{[5-methoxy-6-(4-methyl-1H-imidazol-1-yl)pyridin-3-yl]methylene}piperidin-2-one] gave an IC50 of 265 nM.
`COc1cc(/C=C2\CCCN(C3CCOc4cc(F)ccc43)C2=O)ccc1-n1cnc(C)c1` [Example 1025, (E)-1-[(4R) and (4S)-7-fluorochroman-4-yl]-3-[3-methoxy-4-(4-methyl-1H-imidazol-1-yl)benzylidene]piperidin-2-one] showed an IC50 of 70 nM.
In the case of `COc1cc(/C=C/C(=O)N[C@H]2CCc3ccccc32)ccc1-n1cnc(C)c1` [Example 122, (E)-N-[(1S)-indan-1-yl]-3-[3-methoxy-4-(4-methyl-1H-imidazol-1-yl)phenyl]acrylamide trifluoroacetic acid salt], the IC50 is reported as 190 nM.
`COc1cc(C=C(F)C(=O)N[C@@H]2c3ccccc3C[C@@H]2O)ccc1-n1cnc(C)c1` (stereo in doubt) [Example 90, (E)-2-fluoro-N-[(1R,2S)-2-hydroxy-indan-1-yl]-3-[3-methoxy-4-(4-methyl-1H-imidazol-1-yl)phenyl]acrylamide] gave an IC50 of 240 nM.
Work on `COc1cc(/C=C(\Cc2ccccc2)C(=O)N[C@@H]2c3ccccc3C[C@@H]2O)ccc1-n1cnc(C)c1` [Example 96, (E)-2-benzyl-N-[(1R,2S)-2-hydroxy-indan-1-yl]-3-[3-methoxy-4-(4-methyl-1H-imidazol-1-yl)phenyl]acrylamide trifluoroacetic acid salt] yielded an IC50 of 220 nM.
Work on `COc1cc(/C=C2\CCCN(Cc3cccc(F)c3)C2=O)ccc1-n1cnc(C)c1` [Example 398, (E)-1-(3-fluorobenzyl)-3-[3-methoxy-4-(4-methyl-1H-imidazol-1-yl)benzylidene]piperidin-2-one] yielded an IC50 of 220 nM.
Work on `COc1cc(/C=C2\CCCN(C(c3ccc(F)cc3)C(C)C)C2=O)ccc1-n1cnc(C)c1` [Example 976, (E)-1-[(1S) and (1R)-1-(4-fluorophenyl)-2-methylpropyl]-3-[3-methoxy-4-(4-methyl-1H-imidazol-1-yl)benzylidene]piperidin-2-one] yielded an IC50 of 80 nM.
With `COc1cc(/C=C2\CCCN(Cc3cccc(I)c3)C2=O)ccc1-n1cnc(C)c1` [Example 402, (E)-1-(3-iodobenzyl)-3-[3-methoxy-4-(4-methyl-1H-imidazol-1-yl)benzylidene]piperidin-2-one monotrifluoroacetic acid salt] the IC50 was 70 nM.
Compound `COc1cc(/C=C2\CCCN(C3Cc4ccc(F)cc4C3)C2=O)ccc1-n1cnc(C)c1` [Example 991, (E)-1-[(2S) and (2R)-5-fluoroindan-2-yl]-3-[3-methoxy-4-(4-methyl-1H-imidazol-1-yl)benzylidene]piperidin-2-one] has an IC50 of 60 nM.
`COc1cc(/C=C(\F)C(=O)NC2c3ccccc3-c3ccccc32)ccc1-n1cnc(C)c1` [Example 86, N-(9H-fluoren-9-yl)-2-fluoro-3-[3-methoxy-4-(4-methyl-1H-imidazol-1-yl)phenyl]acrylamide] showed an IC50 of 320 nM.
With `COc1cc(/C=C2\CCCN(C3COc4ccccc4C3)C2=O)ccc1-n1cnc(C)c1` (stereo not shown) [Example 1027, (E)-1-[(3R and 3S)-chroman-3-yl]-3-[3-methoxy-4-(4-methyl-1H-imidazol-1-yl)benzylidene]piperidin-2-one] the IC50 was 71 nM.
In the case of `COc1cc(/C=C/C(=O)N[C@@H](CF)Cc2ccccc2)ccc1-n1cnc(C)c1` [Example 139, (E)-N-[(1R)-fluoromethyl-2-phenylethyl]-3-[3-methoxy-4-(4-methyl-1H-imidazol-1-yl)phenyl]acrylic acid amide], the IC50 is reported as 200 nM.
